Reference: BigSolDB 2.1

Nc1ccc(C(=O)[O-])cc1.[K+]
Details | solubility (mole fraction)
in DMF, 283.15 K | 0.00143
in DMF, 293.15 K | 0.00146
in DMF, 303.15 K | 0.00153
in DMF, 313.15 K | 0.00154
in DMF, 323.15 K | 0.00159
in DMF, 333.15 K | 0.00161
in ethanol, 283.15 K | 0.00224
in ethanol, 293.15 K | 0.00232
in ethanol, 303.15 K | 0.00238
in ethanol, 313.15 K | 0.00244
in ethanol, 323.15 K | 0.0025
in ethanol, 333.15 K | 0.00252
in ethyl acetate, 283.15 K | 0.000198
in ethyl acetate, 293.15 K | 0.000205
in ethyl acetate, 303.15 K | 0.000211
in ethyl acetate, 313.15 K | 0.000216
in ethyl acetate, 323.15 K | 0.000219
in ethylene glycol, 283.15 K | 0.0973
in ethylene glycol, 293.15 K | 0.115
in ethylene glycol, 303.15 K | 0.127
in ethylene glycol, 313.15 K | 0.145
in ethylene glycol, 323.15 K | 0.156
in ethylene glycol, 333.15 K | 0.172
in formamide, 283.15 K | 0.0794
in formamide, 293.15 K | 0.0929
in formamide, 303.15 K | 0.104
in formamide, 313.15 K | 0.112
in formamide, 323.15 K | 0.119
in formamide, 333.15 K | 0.125
in isopropanol, 283.15 K | 0.000366
in isopropanol, 293.15 K | 0.000416
in isopropanol, 303.15 K | 0.000486
in isopropanol, 313.15 K | 0.000496
in isopropanol, 323.15 K | 0.00052
in isopropanol, 333.15 K | 0.000556
in n-propanol, 283.15 K | 0.000852
in n-propanol, 293.15 K | 0.000874
in n-propanol, 303.15 K | 0.000884
in n-propanol, 313.15 K | 0.000929
in n-propanol, 323.15 K | 0.000952
in n-propanol, 333.15 K | 0.000981
in water, 278.15 K | 0.092
in water, 288.15 K | 0.11
in water, 298.15 K | 0.125
in water, 308.15 K | 0.144
in water, 318.15 K | 0.161
in water, 328.15 K | 0.177
in water, 338.15 K | 0.194
